According to article PMC5615432, “HM71224, a selective Bruton’s tyrosine kinase inhibitor, attenuates the development of murine lupus” (Arthritis Research & Therapy, 2017):

Target: Bruton's tyrosine kinase (BTK) (Homo sapiens, UniProt Q06187)
Test: immunoblot of BTK Y223 autophosphorylation in anti-IgM-stimulated Ramos cells
Type: cell-based

Sequence of Bruton's tyrosine kinase (BTK) (Q06187 2-659): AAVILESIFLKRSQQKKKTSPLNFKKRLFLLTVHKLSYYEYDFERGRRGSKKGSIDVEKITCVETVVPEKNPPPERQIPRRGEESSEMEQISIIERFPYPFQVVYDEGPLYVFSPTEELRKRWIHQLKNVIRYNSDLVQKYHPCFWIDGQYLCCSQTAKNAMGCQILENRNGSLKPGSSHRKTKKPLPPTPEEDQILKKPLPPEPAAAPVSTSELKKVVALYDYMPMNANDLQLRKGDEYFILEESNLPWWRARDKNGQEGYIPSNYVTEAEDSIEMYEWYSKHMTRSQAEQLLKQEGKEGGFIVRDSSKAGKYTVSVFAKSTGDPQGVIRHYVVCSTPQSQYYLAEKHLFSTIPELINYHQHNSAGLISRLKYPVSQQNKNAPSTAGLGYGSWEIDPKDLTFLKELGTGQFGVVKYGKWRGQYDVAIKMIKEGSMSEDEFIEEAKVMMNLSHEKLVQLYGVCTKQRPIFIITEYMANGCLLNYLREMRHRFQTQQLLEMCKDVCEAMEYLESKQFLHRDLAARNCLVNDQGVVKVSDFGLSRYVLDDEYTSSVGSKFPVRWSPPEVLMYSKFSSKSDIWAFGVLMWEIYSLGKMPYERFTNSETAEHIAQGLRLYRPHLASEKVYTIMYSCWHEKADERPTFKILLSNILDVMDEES

IC50: < 10 nM
SMILES: C=CC(=O)Nc1cccc(Oc2nc(Nc3ccc(N4CCN(C)CC4)cc3)nc3ccoc23)c1 [HM71224]
